# Data: PubChem BioAssay (NCI)
#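 Five compound concentrations were applied to cells in 96-well plates for 48 hours; endpoints were derived by simple linear interpolation of the resulting dose-response curve. The concentration for 50% growth inhibition is given as GI50. TGI: concentration producing complete growth inhibition.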
# Legend:
# Assay in all cases: inhibition of tumour cell growth, NCI panel, 48 h
# NCI/ADR-RES ovarian = system: NCI/ADR-RES ovarian
# RPMI-8226 leukemia = system: RPMI-8226 leukemia
# UO-31 renal = system: UO-31 renal
# BT-549 breast = system: BT-549 breast
# SN12C renal = system: SN12C renal
# A549 NSCLC = system: A549 NSCLC
# OVCAR-3 ovarian = system: OVCAR-3 ovarian
# OVCAR-4 ovarian = system: OVCAR-4 ovarian
# EKVX NSCLC = system: EKVX NSCLC
# SR leukemia = system: SR leukemia
Compound,TGI (NCI/ADR-RES ovarian),TGI (RPMI-8226 leukemia),TGI (UO-31 renal),TGI (BT-549 breast),TGI (SN12C renal),TGI (A549 NSCLC),TGI (OVCAR-3 ovarian),TGI (OVCAR-4 ovarian),TGI (EKVX NSCLC),TGI (SR leukemia),GI50 (OVCAR-3 ovarian)
N#Cc1c(N2CCC(O)C2)c2ccccc2n2c1nc1ccccc12 (stereo not given),> 100 µM,> 100 µM,> 100 µM,> 100 µM,> 100 µM,> 100 µM,> 100 µM,> 100 µM,> 100 µM,–,–
O=C(Nc1ccc2[nH]c(C(=O)N3CC(CCl)c4c3cc([N+](=O)[O-])c3ccccc43)cc2c1)Nc1ccc2[nH]c(C(=O)N3CC(CCl)c4c3cc([N+](=O)[O-])c3ccccc43)cc2c1 (stereo not given),> 100 µM,> 100 µM,41.1 µM,> 100 µM,> 100 µM,> 100 µM,> 100 µM,> 100 µM,> 100 µM,–,–
CCOc1ccc(N/C(=C(/C(Cl)=C(/Cl)N2CCCCC2)[N+](=O)[O-])n2nnc3ccccc32)cc1,43.5 µM,> 100 µM,4.17 µM,34.6 µM,41.9 µM,62.9 µM,33.7 µM,–,36.9 µM,–,–
COC1C(O)C(n2ncc3c(SC)nc(SC)nc32)OC1C(O)CO (stereo not given),> 100 µM,> 100 µM,> 100 µM,–,> 100 µM,> 100 µM,> 100 µM,> 100 µM,> 100 µM,–,–
CCOC(=O)C1c2[nH]c3ccccc3c2CCN1C(=O)c1ccc(OC)o1 (stereo not given),> 10 µM,> 10 µM,> 10 µM,–,> 10 µM,–,> 10 µM,> 10 µM,> 10 µM,> 10 µM,–
COc1ccc(C2SCC(=O)N2NC(=O)c2ccc(NC(C)=O)cc2)c(OC)c1 (stereo not given),> 100 µM,> 100 µM,> 100 µM,> 100 µM,> 100 µM,> 100 µM,> 100 µM,> 100 µM,> 100 µM,–,–
Cc1c(N2CCN(C)CC2)nc2ccc(Cl)cc2c1-c1ccccc1,–,44.9 µM,36.1 µM,–,29 µM,36.9 µM,74.3 µM,36.9 µM,34.1 µM,39.2 µM,–
CC(C)NC(=O)N(Nc1ccccc1)C(C)(C)C,> 100 µM,–,> 100 µM,> 100 µM,> 100 µM,> 100 µM,> 100 µM,> 100 µM,> 100 µM,> 100 µM,–
O=c1ccn(COC(COCc2ccccc2)COCc2ccccc2)c(=O)[nH]1,> 100 µM,> 100 µM,> 100 µM,> 100 µM,> 100 µM,–,> 100 µM,> 100 µM,–,> 100 µM,–
CC(C)NC(=O)OCc1c(CO)c2c(n1C)-c1ccccc1CC2,61.4 µM,49.4 µM,71.4 µM,–,59.8 µM,> 100 µM,66.9 µM,73 µM,> 100 µM,–,–
CC(=O)OCC1OC(n2c(-c3ccccc3)c(C(C)=O)c(-c3cccc4ccccc34)c(C#N)c2=S)C(OC(C)=O)C(OC(C)=O)C1OC(C)=O (stereo not given),> 100 µM,–,0.0252 µM,–,> 100 µM,> 100 µM,> 100 µM,> 100 µM,> 100 µM,> 100 µM,–
CN(C)C(c1ccccc1)C1COC2Cc3ccccc3C1O2 (stereo not given),> 100 µM,> 100 µM,> 100 µM,–,> 100 µM,> 100 µM,> 100 µM,> 100 µM,> 100 µM,> 100 µM,–
C/C(CC(=O)Nc1ccc(C)c(C)c1)=N\NC(N)=O,–,> 100 µM,> 100 µM,–,–,> 100 µM,> 100 µM,–,> 100 µM,–,–
CC(C)=CCC/C(C)=C/CC/C(C)=C/CC/C(C)=C/CC/C(C)=C/CC/C(C)=C/CC/C(C)=C/CC/C(C)=C/CC/C(C)=C/CO,–,> 100 µM,> 100 µM,> 100 µM,> 100 µM,> 100 µM,> 100 µM,> 100 µM,> 100 µM,> 100 µM,–
CN(C)CCNC(=O)c1cccc(N(C)C(=O)c2ccccc2)c1[N+](=O)[O-],> 100 µM,–,> 100 µM,> 100 µM,> 10 µM,> 100 µM,> 100 µM,–,–,> 100 µM,–
CCCCCCCCCCCCCCCCCCNC(=S)/N=C\C1=C(O)c2ccccc2C1=O,31.7 µM,33.1 µM,23.3 µM,33.9 µM,31.1 µM,28 µM,29.1 µM,–,28 µM,–,–
COc1ccccc1-c1cc(=O)c2cc3c(cc2[nH]1)OCO3,–,> 100 µM,> 100 µM,–,> 100 µM,> 100 µM,> 100 µM,92 µM,> 100 µM,> 100 µM,39.9 µM
CC1SCc2nc3ccccc3n21 (stereo not given),> 100 µM,> 100 µM,> 100 µM,–,> 100 µM,> 100 µM,> 100 µM,> 100 µM,> 100 µM,–,–
CCOC(=O)C1=CCOc2cc(N(C)C)ccc21,> 100 µM,> 100 µM,> 100 µM,> 100 µM,> 100 µM,> 100 µM,55.3 µM,–,> 100 µM,> 100 µM,–
COC1CN(C)C(=Nc2cccc3ccccc23)S1 (stereo not given),> 10 µM,> 10 µM,–,> 10 µM,> 10 µM,> 10 µM,–,> 10 µM,–,> 10 µM,–
O=c1c(Br)cc2nc3ccccc3sc-2c1Br,–,> 100 µM,> 100 µM,–,> 100 µM,> 100 µM,32.5 µM,> 70.9 µM,> 100 µM,> 100 µM,–
O=c1[nH]nc(-c2ccccc2)n1/N=C/c1cccs1,93.8 µM,> 100 µM,> 100 µM,95.8 µM,> 100 µM,> 100 µM,> 100 µM,62 µM,> 100 µM,–,–
O=C(CN1CCOCC1)c1ccc2c(c1)oc(=O)n2CCN1CCOCC1,> 100 µM,> 100 µM,–,–,> 100 µM,–,> 100 µM,–,> 100 µM,> 100 µM,–
[N-]=[N+]=NC(c1cn(C2CC(O)C(CO)O2)c(=O)[nH]c1=O)C(Cl)I (stereo not given),> 100 µM,> 100 µM,> 100 µM,> 100 µM,> 100 µM,> 100 µM,> 100 µM,> 100 µM,> 100 µM,–,–
